Entries after “also recorded” stand apart in the source; their conditions may differ.
What was measured:
Format in all cases: cell-based, human
muscarinic receptor = assay: Ex vivo isometric force contraction of muscle strips from transplanted hAGO +SM +ENS in an organ bath
ENS = tested on: ENS
hAGOs +ENCCs = assay: Brunner's gland epithelium in grafts of hAGOs recombined with ENCCs and transplanted into mice; conditions: ENCCs recombined at day 6, Noggin day 6-9 (3 days) along with RA; compared with 5 out of 21 grafts not treated
Experimental: (§1) One candidate pathway was BMP signaling, which is known to promote posterior fate in the gastrointestinal junction. Analysis of ENCCs show high levels of expression of both BMP4 and BMP7 (FIG. 15A). To functionally investigate if BMP activity might mediate the ability of ENCCs to promote a Brunner's gland fate, ENCCs were recombined with hAGO at day 6 and then organoids were cultured with the BMP inhibitor Noggin (NOG) from day 6-9, along with RA, which is a component of the normal hAGO protocol. None of the grafts (0 out of 27) had Brunner's gland epithelium following 3 days of Noggin treatment as compared to hAGOs +ENCCs added at day 9 not treated with NOG (5 out of 21 grafts). […]
Recombination and additional spheroid patterning: Single cell suspensions of mesenchymal cells and ENCCs were counted and added to foregut spheroids at an approximate ratio of 1,000 ENCCs and 2,500 mesenchyme cells per spheroid. […]
In vivo transplantation of hAGOs and hFGOs: hAGO, hFGO, hAGO +ENS, hAGO +SM +ENS, hAGO +SM +ENS, and hFGO +SM +ENS were all ectopically transplanted into the kidney capsule of NSG mice. […] Engrafted organoids were harvested 6-15 weeks after transplantation and analyzed for neuroglial, epithelial, and mesenchymal maturation.

ENCCs = assay: Expression of BMP ligands in ENCC culture (qRT-PCR); conditions: ENCC culture treated with NOG; FIG. 15B
Experimental: as §1
RNA isolation and quantitative real-time PCR (qRT-PCR): Spheroids and organoids were harvested in RAI Lysis Buffer and β-mercapethanol and stored at −80° C. until total RNA was isolated using NucleoSpin RNA Isolation Kit (Macherey-Nagel) according to manufacturers' instructions. Complementary DNA (cDNA) was reverse transcribed from 116 ng of RNA using a SuperScript VILO cDNA Synthesis Kit (Invitrogen). qRT-PCR was performed using a QuantiTect SYBR Green PCR Kit (Qiagen) in MicroAmp EnduraPlate Optical 96-Well Fast Reaction Plates (Applied Biosystems) and run on a QuantStudio 6 Real-Time PCR Detection System (Applied Biosystems). […]

Molecule: CN1[C@@H]2C[C@@H](OC(=O)[C@H](CO)c3ccccc3)C[C@H]1[C@@H]1O[C@@H]12 [scopolamine]
- reversal of contractions / muscle relaxation (muscarinic receptor): contractions were able to be reversed and muscle relaxation induced

Molecule: CC(C[N+](C)(C)C)OC(N)=O (stereo not drawn) [bethanechol, Carbamyl-β-methylcholine chloride]
- contractility (smooth muscle force contraction), dose response (muscarinic receptor; 1 nM to 10 mM at 2 min intervals, tissue strips of transplanted hAGO +SM +ENS, FIG. 4C): increased in response to bethanechol in a dose-dependent manner
- normalized mean maximal tension (muscarinic receptor; bethanechol dose response before scopolamine, normalized to muscle strip mass, n=3, FIG. 4D): 236.9 g/g

Molecule: NC1=N[C@H](O)[C@H]2[C@H]3O[C@]4(O)O[C@@H]([C@@H](O)[C@@]2(N1)[C@@H]4O)[C@]3(O)CO [tetrodotoxin]
- EFS-stimulated contractile activity (change in AUC) (ENS): abolished the ability of EFS to stimulate contractile activity; also recorded: abrogating EFS-mediated contractions

B1: Noggin: BMP inhibitor Noggin (NOG) (protein, UniProt Q13253 28-232, looked up)
Noggin: QHYLHIRPAPSDNLPLVDLIEHPDPIFDPKEKDLNETLLRSLLGGHYDPGFMATSPPEDRPGGGGGAAGGAEDLAELDQLLRQRPSGAMPSEIKGLEFSEGLAQGKKQRLSKKLRRKLQMWLWSQTFCPVLYAWNDLGSRFWPRYVKVGSCFSKRSCSVPEGMVCKPSKSVHLTVLRWRCQRRGGQRCGWIPIQYPIISECKCSC
- grafts with Brunner's gland epithelium (hAGOs +ENCCs): 0 out of 27
- levels of BMP4 and BMP7 expression (ENCCs): significantly reduced levels of both BMP4 and 7

Reference: patent publication US20240318145A1, “STRUCTURALLY COMPLETE ORGANOIDS” (Children's Hospital Medical Center, priority 2021, published 2024)
